The results in this text go back to patent US20260327221A1, “INHIBITORS OF CYCLIC GMP-AMP SYNTHASE AND USES THEREOF” (Ventus Therapeutics U.S., Inc., priority 2023, published 2026).

Read-outs that look alike come from different tables or passages of the source.

This assay deals with hcGAS (Homo sapiens, UniProt Q8N884). Nature of the assay: hcGAS LCMS assay (direct measurement of cGAMP production by LC/MS). The assay is classed as biochemical. The conditions noted are these: for cGAS potency relative to Compound 1: compared with Compound 1, from activity classes of Table D. The procedure, abridged:
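Enzyme, substrates (ATP, GTP) and compound incubated 4 h, then quenched with acetonitrile/water containing 0.15 uM 13C/15N-labeled cGAMP internal standard. cGAMP formed quantified directly by LC/MS on HILIC amide column; IC50 values reported in potency bins.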

The mark [1] stands for this setting: 4 h incubation with enzyme and substrates, cGAMP production by LC/MS, class symbols, read-out: hcGAS LCMS IC50.
The mark [2] stands for this setting: hcGAS 0.5 nM, ATP 100 μM, GTP 100 μM, dsDNA 25 nM, pH 7.4, 4 h incubation, read-out: hcGAS inhibition IC50 (activity class, Table D).

Chain of hcGAS (Q8N884 whole entry): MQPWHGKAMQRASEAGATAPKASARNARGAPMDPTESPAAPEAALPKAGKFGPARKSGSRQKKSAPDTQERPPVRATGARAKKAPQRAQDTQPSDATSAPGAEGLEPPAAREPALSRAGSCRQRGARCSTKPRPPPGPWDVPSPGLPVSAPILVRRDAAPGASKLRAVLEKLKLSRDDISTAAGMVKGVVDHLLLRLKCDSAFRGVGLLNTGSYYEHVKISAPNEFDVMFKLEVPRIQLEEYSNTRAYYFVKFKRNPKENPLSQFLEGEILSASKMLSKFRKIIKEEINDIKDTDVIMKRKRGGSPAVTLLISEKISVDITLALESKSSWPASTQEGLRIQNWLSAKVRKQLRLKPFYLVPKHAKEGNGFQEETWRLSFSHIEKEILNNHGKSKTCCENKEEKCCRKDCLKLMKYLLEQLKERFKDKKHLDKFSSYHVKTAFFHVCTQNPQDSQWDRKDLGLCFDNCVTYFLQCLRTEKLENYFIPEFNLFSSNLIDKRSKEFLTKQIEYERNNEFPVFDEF

On to `COCC(C)(C)COc1c(-c2ncccc2OC)cc(C(=O)Nc2nnc(-n3nccc3N)s2)oc1=O` [Compound 29, N-(5-(5-amino-1H-pyrazol-1-yl)-1,3,4-thiadiazol-2-yl)-3-(3-methoxy-2,2-dimethylpropoxy)-4-(3-methoxypyridin-2-yl)-2-oxo-2H-pyran-6-carboxamide], for which the IC50 (in general, the midpoint of a concentration-inhibition curve) under setting [1] is 1 to 5 nM. Consider `COCCOCCOc1c(-c2c(OC)cccc2OC)cc(C(=O)Nc2nnc(-n3nccc3N)s2)oc1=O` [Compound 30, N-(5-(5-amino-1H-pyrazol-1-yl)-1,3,4-thiadiazol-2-yl)-4-(2,6-dimethoxyphenyl)-3-(2-(2-methoxyethoxy)ethoxy)-2-oxo-2H-pyran-6-carboxamide], for which, under setting [1], the IC50 was 0.5 to 1 nM. On the same count and under the same terms, in the case of `COc1c(-c2nn(C)cc2C#N)cc(C(=O)Nc2nnc(-n3nccc3C)s2)oc1=O` [Compound 31, 4-(4-cyano-1-methyl-1H-pyrazol-3-yl)-3-methoxy-N-(5-(5-methyl-1H-pyrazol-1-yl)-1,3,4-thiadiazol-2-yl)-2-oxo-2H-pyran-6-carboxamide] it was 5 to 20 nM. Still for that read-out and setting: in the case of `COCCOc1c(-c2c(CC#N)cccc2OC)cc(C(=O)Nc2nnc(-n3nccc3N)s2)oc1=O` [Compound 32, N-(5-(5-amino-1H-pyrazol-1-yl)-1,3,4-thiadiazol-2-yl)-4-(2-(cyanomethyl)-6-methoxyphenyl)-3-(2-methoxyethoxy)-2-oxo-2H-pyran-6-carboxamide] it was 1 to 5 nM; in that of `COc1cccnc1-c1cc(C(=O)Nc2nnc(-n3nccc3N)s2)oc(=O)c1OCC(C)(C)CO` [Compound 33, N-(5-(5-amino-1H-pyrazol-1-yl)-1,3,4-thiadiazol-2-yl)-3-(3-hydroxy-2,2-dimethylpropoxy)-4-(3-methoxypyridin-2-yl)-2-oxo-2H-pyran-6-carboxamide], 1 to 5 nM; in that of `COc1cccc(OC)c1-c1cc(C(=O)Nc2nnc(-n3nccc3N)s2)oc(=O)c1OCC(C)(C)CO` [Compound 36, N-(5-(5-amino-1H-pyrazol-1-yl)-1,3,4-thiadiazol-2-yl)-4-(2,6-dimethoxyphenyl)-3-(3-hydroxy-2,2-dimethylpropoxy)-2-oxo-2H-pyran-6-carboxamide], 0.5 to 1 nM. The same measure, in the same setting: for `COCCOc1c(-c2c(C#N)cccc2COC)cc(C(=O)Nc2nnc(-n3nccc3N)s2)oc1=O` [Compound 39, N-(5-(5-amino-1H-pyrazol-1-yl)-1,3,4-thiadiazol-2-yl)-4-(2-cyano-6-(methoxymethyl)phenyl)-3-(2-methoxyethoxy)-2-oxo-2H-pyran-6-carboxamide] the value was 1 to 5 nM; for `COc1cccc(OC)c1-c1cc(C(=O)Nc2nnc(-n3nccc3N)s2)oc(=O)c1OCCCO` [Compound 40, N-(5-(5-amino-1H-pyrazol-1-yl)-1,3,4-thiadiazol-2-yl)-4-(2,6-dimethoxyphenyl)-3-(3-hydroxypropoxy)-2-oxo-2H-pyran-6-carboxamide], 0.5 to 1 nM. For the compound `COCCOc1c(-c2c(O)cccc2Cl)cc(C(=O)Nc2nnc(-n3nccc3N)s2)oc1=O` [Compound 41, N-(5-(5-amino-1H-pyrazol-1-yl)-1,3,4-thiadiazol-2-yl)-4-(2-chloro-6-hydroxyphenyl)-3-(2-methoxyethoxy)-2-oxo-2H-pyran-6-carboxamide], the “cGAS potency relative to Compound 1” value is on record as “improved cGAS potency”. In addition, the IC50 under setting [1] was below 0.5 nM. For the same compound, the IC50 under setting [2] is below 0.5 nM.

Regarding `COc1cccc(OC)c1-c1cc(C(=O)Nc2nnc(-n3nccc3N)s2)oc(=O)c1OCC1(OC)CC1` [Compound 42, N-(5-(5-amino-1H-pyrazol-1-yl)-1,3,4-thiadiazol-2-yl)-4-(2,6-dimethoxyphenyl)-3-((1-methoxycyclopropyl)methoxy)-2-oxo-2H-pyran-6-carboxamide], under setting [1], the IC50 was in the range of 0.5 to 1 nM. Turning to `COc1cccc(OC)c1-c1cc(C(=O)Nc2nnc(-n3nccc3N)s2)oc(=O)c1OCCN1CCSCC1` [Compound 44, N-(5-(5-amino-1H-pyrazol-1-yl)-1,3,4-thiadiazol-2-yl)-4-(2,6-dimethoxyphenyl)-2-oxo-3-(2-thiomorpholinoethoxy)-2H-pyran-6-carboxamide], the “cGAS potency relative to Compound 1” value is on record as “improved cGAS potency”. Moreover, under setting [1], the IC50 was below 0.5 nM. In addition, the IC50 under setting [2] is below 0.5 nM. Regarding `COCCOc1c(-c2c(Cl)cccc2C#N)cc(C(=O)Nc2nnc(-n3nccc3N)s2)oc1=O` [Compound 45, N-(5-(5-amino-1H-pyrazol-1-yl)-1,3,4-thiadiazol-2-yl)-4-(2-chloro-6-cyanophenyl)-3-(2-methoxyethoxy)-2-oxo-2H-pyran-6-carboxamide], the IC50 was below 0.5 nM under setting [1] and below 0.5 nM under setting [2]. With `COc1cccc(OC)c1-c1cc(C(=O)Nc2nnc(-n3nccc3N)s2)oc(=O)c1OC[C@@H](C)O` [Compound 46A, (R)—N-(5-(5-amino-1H-pyrazol-1-yl)-1,3,4-thiadiazol-2-yl)-4-(2,6-dimethoxyphenyl)-3-(2-hydroxypropoxy)-2-oxo-2H-pyran-6-carboxamide], the IC50 under setting [1] is 0.5 to 1 nM. The same measure, in the same setting: for `COc1cccc(OC)c1-c1cc(C(=O)Nc2nnc(-n3nccc3N)s2)oc(=O)c1OC[C@H](C)O` [Compound 46B, (S)—N-(5-(5-amino-1H-pyrazol-1-yl)-1,3,4-thiadiazol-2-yl)-4-(2,6-dimethoxyphenyl)-3-(2-hydroxypropoxy)-2-oxo-2H-pyran-6-carboxamide] the value was below 0.5 nM; for `COC[C@H](C)Oc1c(-c2c(OC)cccc2OC)cc(C(=O)Nc2nnc(-n3nccc3N)s2)oc1=O` [Compound 47A, (S)—N-(5-(5-amino-1H-pyrazol-1-yl)-1,3,4-thiadiazol-2-yl)-4-(2,6-dimethoxyphenyl)-3-((1-methoxypropan-2-yl)oxy)-2-oxo-2H-pyran-6-carboxamide], 1 to 5 nM. For `COC[C@@H](C)Oc1c(-c2c(OC)cccc2OC)cc(C(=O)Nc2nnc(-n3nccc3N)s2)oc1=O` [Compound 47B, (R)—N-(5-(5-amino-1H-pyrazol-1-yl)-1,3,4-thiadiazol-2-yl)-4-(2,6-dimethoxyphenyl)-3-((1-methoxypropan-2-yl)oxy)-2-oxo-2H-pyran-6-carboxamide], the IC50 under setting [1] was below 0.5 nM.

As to `COCCOc1c(-c2c(C#N)cccc2CO)cc(C(=O)Nc2nnc(-n3nccc3N)s2)oc1=O` [Compound 48, N-(5-(5-amino-1H-pyrazol-1-yl)-1,3,4-thiadiazol-2-yl)-4-(2-cyano-6-(hydroxymethyl)phenyl)-3-(2-methoxyethoxy)-2-oxo-2H-pyran-6-carboxamide], under setting [1], the IC50 was 0.5 to 1 nM. `COCCOc1c(-c2nc(OC)ccc2OC)cc(C(=O)Nc2nnc(-n3nccc3N)s2)oc1=O` [Compound 49, N-(5-(5-amino-1H-pyrazol-1-yl)-1,3,4-thiadiazol-2-yl)-4-(3,6-dimethoxypyridin-2-yl)-3-(2-methoxyethoxy)-2-oxo-2H-pyran-6-carboxamide]: under setting [1], the IC50 lay within 1 to 5 nM. Still for that read-out and setting: in the case of `COCCOc1c(-c2c(OC)cccc2OC)cc(C(=O)Nc2nnc(-c3ncsc3N)s2)oc1=O` [Compound 51, N-(5-(5-aminothiazol-4-yl)-1,3,4-thiadiazol-2-yl)-4-(2,6-dimethoxyphenyl)-3-(2-methoxyethoxy)-2-oxo-2H-pyran-6-carboxamide] it was 0.5 to 1 nM; in that of `COc1cccc(OC)c1-c1cc(C(=O)Nc2nnc(-n3nccc3N)s2)oc(=O)c1OC[C@H](C)OC` [Compound 53, (S)-N-(5-(5-amino-1H-pyrazol-1-yl)-1,3,4-thiadiazol-2-yl)-4-(2,6-dimethoxyphenyl)-3-(2-methoxypropoxy)-2-oxo-2H-pyran-6-carboxamide], below 0.5 nM. Still for that read-out and setting: for `COc1cccc(OC)c1-c1cc(C(=O)Nc2nnc(-n3nccc3N)s2)oc(=O)c1OC[C@@H](C)OC` [Compound 54, (R)-N-(5-(5-amino-1H-pyrazol-1-yl)-1,3,4-thiadiazol-2-yl)-4-(2,6-dimethoxyphenyl)-3-(2-methoxypropoxy)-2-oxo-2H-pyran-6-carboxamide] the value was 0.5 to 1 nM; for `COCCOc1c(-c2ncc(Cl)cc2OC)cc(C(=O)Nc2nnc(-n3nccc3N)s2)oc1=O` [Compound 58, N-(5-(5-amino-1H-pyrazol-1-yl)-1,3,4-thiadiazol-2-yl)-4-(5-chloro-3-methoxypyridin-2-yl)-3-(2-methoxyethoxy)-2-oxo-2H-pyran-6-carboxamide], 0.5 to 1 nM; for `COc1cccc(OC)c1-c1cc(C(=O)Nc2nnc(-n3nccc3N)s2)oc(=O)c1OCCC(C)(C)O` [Compound 59, N-(5-(5-amino-1H-pyrazol-1-yl)-1,3,4-thiadiazol-2-yl)-4-(2,6-dimethoxyphenyl)-3-(3-hydroxy-3-methylbutoxy)-2-oxo-2H-pyran-6-carboxamide], below 0.5 nM. As for `COCCOc1c(-c2ncc(OC)cc2OC)cc(C(=O)Nc2nnc(-n3nccc3N)s2)oc1=O` [Compound 60, N-(5-(5-amino-1H-pyrazol-1-yl)-1,3,4-thiadiazol-2-yl)-4-(3,5-dimethoxypyridin-2-yl)-3-(2-methoxyethoxy)-2-oxo-2H-pyran-6-carboxamide], the IC50 under setting [1] lay within 1 to 5 nM.

Take `COc1cccnc1-c1cc(C(=O)Nc2nnc(-n3nccc3N)s2)oc(=O)c1OCCOC(F)F` [Compound 61, N-(5-(5-amino-1H-pyrazol-1-yl)-1,3,4-thiadiazol-2-yl)-3-(2-(difluoromethoxy)ethoxy)-4-(3-methoxypyridin-2-yl)-2-oxo-2H-pyran-6-carboxamide]: the IC50 under setting [1] was 1 to 5 nM. Same read-out and setting: in the case of `COC[C@H](CO)Oc1c(-c2c(OC)cccc2OC)cc(C(=O)Nc2nnc(-n3nccc3N)s2)oc1=O` [Compound 62A*, (S)—N-(5-(5-amino-1H-pyrazol-1-yl)-1,3,4-thiadiazol-2-yl)-4-(2,6-dimethoxyphenyl)-3-((1-hydroxy-3-methoxypropan-2-yl)oxy)-2-oxo-2H-pyran-6-carboxamide] it was 0.5 to 1 nM.
